Experimental data published in PubChem BioAssay (NCI).
Several values for one entry are separate records, joined by “and”; a condition that tells them apart may be missing. Equal entries are not always repeated.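 Dose response: 5 concentrations. Exposure: 48 h. Format: 96-well plates. Endpoint: linear interpolation; highest concentration if not reached. GI50 marks 50% less growth. Definition used: TGI = concentration required for complete inhibition of growth.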

How the values were obtained:
Test in all cases: inhibition of tumour cell growth, NCI panel, 48 h
ACHN renal = test system: ACHN renal
CCRF-CEM leukemia = test system: CCRF-CEM leukemia
COLO 205 colon = test system: COLO 205 colon
HCC-2998 colon = test system: HCC-2998 colon
M14 melanoma = test system: M14 melanoma
OVCAR-5 ovarian = test system: OVCAR-5 ovarian
SF-268 CNS = test system: SF-268 CNS
SNB-19 CNS = test system: SNB-19 CNS
SNB-75 CNS = test system: SNB-75 CNS
MCF7 breast = test system: MCF7 breast

Compound | TGI (ACHN renal) [µM] | TGI (CCRF-CEM leukemia) | TGI (COLO 205 colon) [µM] | TGI (HCC-2998 colon) [µM] | TGI (M14 melanoma) [µM] | TGI (OVCAR-5 ovarian) [µM] | TGI (SF-268 CNS) [µM] | TGI (SNB-19 CNS) | TGI (SNB-75 CNS) | GI50 (ACHN renal) [µM] | GI50 (CCRF-CEM leukemia) [µM] | GI50 (COLO 205 colon) | GI50 (M14 melanoma) [µM] | GI50 (MCF7 breast) [µM] | TGI (MCF7 breast) [µM] | GI50 (OVCAR-5 ovarian) [µM] | GI50 (SF-268 CNS) [µM] | GI50 (SNB-19 CNS) [µM] | GI50 (HCC-2998 colon) [µM] | GI50 (SNB-75 CNS)
Cc1ccc(C(=O)C#Cc2c[nH]c(=O)[nH]c2=O)cc1 | 29 | 18.8 µM | 44.3 | 25.3 | 35 | 33 | 26.2 | 43 µM | 34.4 µM |  |  |  |  |  |  |  |  |  |  | 
COc1cc(Nc2nc3cc(C(F)(F)F)ccc3nc2-c2ccccc2)cc(OC)c1OC | > 100 | > 100 µM | > 100 | > 100 | > 100 | > 100 | > 100 |  | > 100 µM |  |  |  |  |  |  |  |  |  |  | 
Cc1ccc(NC2=C(Cl)C(=O)N(Cc3ccccc3)C2=O)cc1Cl | 26.6 | 19.4 µM | 22.1 |  | 22.9 | 43.3 | 15.1 | 34.7 µM |  | 11.1 | 4.23 | 7.03 µM | 11 | 3.3 | 13.7 | 15.7 | 3.28 | 11.2 |  | 
CCOC(=O)C(C(=O)OCC)=C1N[C@H](C(=O)OCC)CS1 | > 100 | > 100 µM | > 100 | > 100 | > 100 | > 100 | > 100 | > 100 µM |  |  |  |  |  |  |  |  |  |  |  | 
COc1ccc(C(=O)CC(=O)C(=O)Nc2ccc(C)c(C)c2)cc1 | > 100 | > 74.5 µM | > 82.4 | > 100 | > 100 | > 93.7 | > 100 | > 100 µM | 94.6 µM |  |  |  |  |  |  |  |  |  |  | 
O=C(O)c1cccc2cccc(C(=O)O)c12.[Hg] | 31.8 | 29.2 µM | 14.5 | 25.3 | 27 | 33.5 | 26.5 | 29.7 µM | 36.9 µM | 17.7 | 6.92 | 3.1 µM | 14 |  |  | 19.4 | 11.5 | 15.9 | 12 | 18.9 µM
COc1ccc(-c2cc(-c3cc(C)ccc3O)[nH]c(=O)n2)cc1 | > 100 | > 100 µM | > 100 | > 100 | > 100 |  | > 100 | > 100 µM | 66.8 µM |  |  |  |  |  |  |  |  |  |  | 
CCCc1nc(NC#N)nc(C(=O)NC23CC4CC(CC(C4)C2)C3)c1C | > 100 | > 100 µM | > 100 | > 100 | > 100 | > 100 | > 100 | > 100 µM | > 100 µM |  |  |  |  |  |  |  |  |  |  | 
NCCCNCCSSC/C=C\CSSCCNCCCN | > 100 | 32.3 µM and 62.5 µM | > 100 | > 100 | > 100 | > 100 | > 100 | > 100 µM | > 100 µM |  |  |  |  |  |  |  |  |  |  | 
Oc1ccc(-c2cn3cc(Cl)sc3n2)cc1 | 24.6 | 39.8 µM | 43.4 |  | 56.8 |  | 80.2 | > 100 µM |  | 3.98 | 12.1 | 19.8 µM | 20.1 | 6.77 | 26.9 |  | 12.2 | 58.8 |  | 
CCC1CC(C)=CCN1S(=O)(=O)c1ccc(C)cc1 (stereo not drawn) | > 100 | 75.7 µM | 38.4 |  | 57.5 | > 100 | 62.1 | > 100 µM | 50.6 µM |  |  |  |  |  |  |  |  |  |  | 
COc1ccc(NC(=O)CC(=O)N2N=C(N(CCC#N)c3cccc(C)c3)CC2c2ccccc2)cc1 (stereo not drawn) | > 100 | > 100 µM | > 100 | > 100 | > 100 | > 100 | > 100 | > 100 µM | > 100 µM |  |  |  |  |  |  |  |  |  |  | 
O=NN/C(=C1\Nc2ccc([N+](=O)[O-])cc2NC1=O)C(O)c1ccc([N+](=O)[O-])cc1 (stereo not drawn) | > 100 | > 100 µM | > 100 | > 100 | > 100 | > 100 | > 100 | > 100 µM | > 100 µM |  |  |  |  |  |  |  |  |  |  | 
COc1ccc(-c2nc(N3CCOCC3)c3sc(CN(C)c4ncc(C(=O)NO)cn4)cc3n2)cn1 | 0.0345 | 1.53 µM |  |  |  | 0.0419 | 0.204 | 0.0907 µM | 0.152 µM | < 0.01 | < 0.01 |  |  | < 0.01 | 0.366 | < 0.01 | 0.0178 | < 0.01 |  | < 0.01 µM
COC1=C2C[C@@H](C)C[C@@H](OC)[C@@H](O)[C@H](C)/C=C(\C)[C@@H](OC(N)=O)[C@H](OC)/C=C\C=C(/C)C(=O)NC(=CC1=O)C2=O |  | 1.07 µM and 7.4 µM and 4.95 µM |  |  |  |  |  | 28 µM and 26.5 µM and 10.4 µM | 18.6 µM and 19.2 µM and 3.97 µM |  |  | 0.0578 µM and 0.015 µM |  |  |  |  |  |  |  | 7.93 µM and 4.68 µM and 1.12 µM
